These results are taken from PMC5424463, “A strategy based on nucleotide specificity leads to a subfamily-selective and cell-active inhibitor of N ^6-methyladenosine demethylase FTO” (Chemical Science, 2014).

In series [1] the target is T1, FTO (Homo sapiens, UniProt Q9C0B1).
T1 construct: The human full length FTO construct used in this study; made in house; host or cells: E. coli BL21 (DE3) Rosetta T1R
Description: HPLC-based inhibition assay for FTO, m3T substrate. The series is classed as biochemical. The procedure: HPLC-based inhibition assays for FTO
The assay was modified from previously reported method.[17] It is performed in triplicate for each inhibitor, in a final reaction volume of 25 µL. Reaction consisted of FTO (1 µM), 2OG (50 µM), (NH4)2Fe(SO4)2·6H2O (50 µM), L-ascorbate (2 mM), 3-methylthymidine (m3T substrate, 10 µM) in 50 mM HEPES buffer, pH 7.5, and inhibitor at various concentrations (final DMSO concentration not more than 1% v/v of assay mix). The reaction was incubated at 4°C for 1 h, before analysis on a HPLC system. The substrate (m3T) and the demethylated product (thymidine) were separated using a Zorbax C18 column (4.6 mm x 250 mm) with a […]
flow rate of 1 mL/min at room temperature.
The percentage inhibition was estimated based on the peak areas of the 3-methylthymidine substrate and the thymidine product. For IC50 determination, eight different concentrations of […]
the variation in percentage demethylation at different inhibitor concentrations, using nonlinear regression, with normalized dose-response fit on GraphPad Prism 6.0™.
HPLC-based assay for FTO was also performed using an m6A-ssRNA as substrate. The assay was modified from previously reported method.[21] All reaction conditions are as described for the inhibition of m3T demethylation above, except that a 15-mer ssRNA with the sequence 5’-CUUGUCA(m6A)CAGCAGA-3’ (Yale University, W.M. Keck Foundation Biotechnology Resource Laboratory) was used as substrate (10 µM). The reaction was analysed on a bio-inert HPLC system. The m6A-ssRNA substrate and the corresponding demethylated product were separated using a Dionex DNAPac PA200 anion-exchange

In another series the target is T2, ALKBH5 (Homo sapiens, UniProt Q6P6C2).
T2 construct: pNIC28-Bsa4 ALKBH5 (encompassing residues 66-292); made in house; host or cells: E. coli BL21 (DE3) Rosetta T1R
T2 sequence (Q6P6C2 66-292): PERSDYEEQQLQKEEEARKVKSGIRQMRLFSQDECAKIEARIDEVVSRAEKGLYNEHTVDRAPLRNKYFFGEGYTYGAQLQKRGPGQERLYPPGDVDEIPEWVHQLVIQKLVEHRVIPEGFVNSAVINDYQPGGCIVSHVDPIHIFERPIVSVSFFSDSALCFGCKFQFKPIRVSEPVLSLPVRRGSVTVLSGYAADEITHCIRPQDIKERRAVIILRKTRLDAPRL
The series can be described thus: Differential scanning fluorimetry (DSF)-based binding assay, ALKBH5. The following applies: 100 μM compound, 2 μM protein; for ΔTm at 100 µM: 50 μM MnCl2, read-out: Tm shift (ALKBH5); for Tm shift (ALKBH5): 50 μM MnCl2. How it is done: (§1) Superdex-200 column (GE Healthcare) pre-equilibrated with 20 mM HEPES, pH 7.5, 300 mM NaCl, 10% (v/v) glycerol, 0.5 mM TCEP. […]
(§2) Differential scanning fluorimetry (DSF)-based binding assay
(§3) DSF-based binding assay was performed using a MiniOpticon™ Real-Time PCR Detection System (Bio-Rad), monitoring protein unfolding using SYPRO orange (Invitrogen) according […]
(§4) to the reported method.[16] […]
(§5) and emission respectively. Reaction mixes contained 2 μM protein, 50 μM MnCl2, 100 μM […]
(§6) Reagents were prepared in 50mM
(§7) HEPES buffer, pH 7.5 except metals, which were dissolved as 100 mM stocks in 20 mM HCl, then further diluted in MilliQ water. Compounds tested were prepared in 100% DMSO and added such that the final concentration of DMSO was not more than 1% v/v of assay […]
(§8) increased linearly by 1°C min -1. The software provided was used to perform global minimum subtraction. The inflection point, representing Tm, was calculated by fitting the Boltzmann equation to the sigmoidal curves obtained; data were processed using GraphPad Prism 6.0™.
(§9) The Tm shift caused by the addition of small molecules/ fragments was determined by subtraction of the “reference” Tm (protein incubated with metal and 1% v/v DMSO) from the Tm obtained in the presence of the compound. […]
For orientation: In DSF a fluorescence change marks the thermal transition of the protein.

Another series deals with T3, ALKBH2 (Homo sapiens, UniProt Q6NS38).
T3 construct: made in house; host or cells: E. coli BL21 (DE3)
T3 sequence (Q6NS38 56-258): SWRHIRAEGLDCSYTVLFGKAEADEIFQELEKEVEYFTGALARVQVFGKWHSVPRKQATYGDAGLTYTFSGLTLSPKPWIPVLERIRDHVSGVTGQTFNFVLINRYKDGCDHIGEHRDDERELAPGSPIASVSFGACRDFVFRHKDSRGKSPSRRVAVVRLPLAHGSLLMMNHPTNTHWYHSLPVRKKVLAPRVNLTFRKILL
Description: Differential scanning fluorimetry (DSF)-based binding assay, ALKBH2. The following applies: DSF, 100 μM compound, 2 μM protein, 50 μM MnCl2; for ΔTm at 100 µM: read-out: Tm shift (ALKBH2). How it is done:
as §1, §2
(§10) DSF-based binding assay was performed using a MiniOpticon™ Real-Time PCR Detection System (Bio-Rad), monitoring protein unfolding using SYPRO orange (Invitrogen) according to the reported method.[16] FAM (492 nm) and ROX (610 nm) filters were used for excitation and emission respectively. Reaction mixes contained 2 μM protein, 50 μM MnCl2, 100 μM compounds, 5x SYPRO orange in a final volume of 50 μl. Reagents were prepared in 50mM HEPES buffer, pH 7.5 except metals, which were dissolved as 100 mM stocks in 20 mM HCl, then further diluted in MilliQ water. Compounds tested were prepared in 100% DMSO and added such that the final concentration of DMSO was not more than 1% v/v of assay […]
(§11) mix. Fluorescence readings were taken every 1°C in the range 25-95°C, with the temperature increased linearly by 1°C min -1. The software provided was used to perform global minimum subtraction. The inflection point, representing Tm, was calculated by fitting the Boltzmann equation to the sigmoidal curves obtained; data were processed using GraphPad Prism 6.0™.
(§12) The Tm shift caused by the addition of small molecules/ fragments was determined by subtraction of the “reference” Tm (protein incubated with metal and 1% v/v DMSO) from the Tm obtained in the presence of the compound. The assay was performed in triplicate for each inhibitor, with standard deviations typically < 1°C. […]

Series [2] concerns the target T1, FTO. Description: Differential scanning fluorimetry (DSF)-based binding assay, FTO. To be noted: 100 μM compound, 2 μM protein; for ΔTm at 100 µM: 50 μM MnCl2, read-out: Tm shift (FTO); for Tm shift (FTO): 50 μM MnCl2. How it is done:
as §1, §2, §3, §4, §5, §6, §7, §8, §9

For a further series, the target named is T4, ALKBH3 (Homo sapiens, UniProt Q96Q83).
T4 construct: Human ALKBH3 (encompassing residues 1- 286); purchased ProSpec-Tany Technogene Ltd, Israel
T4 sequence (Q96Q83 1-286): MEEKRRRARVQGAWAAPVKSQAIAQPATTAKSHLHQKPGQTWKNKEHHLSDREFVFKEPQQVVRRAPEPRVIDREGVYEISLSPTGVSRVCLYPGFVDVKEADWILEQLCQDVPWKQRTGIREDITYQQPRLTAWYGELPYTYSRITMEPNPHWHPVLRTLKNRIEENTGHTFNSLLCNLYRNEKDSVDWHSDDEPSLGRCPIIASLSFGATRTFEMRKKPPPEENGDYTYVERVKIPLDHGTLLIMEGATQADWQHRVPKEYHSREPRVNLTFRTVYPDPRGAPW
The series can be described thus: Differential scanning fluorimetry (DSF)-based binding assay, ALKBH3. To be noted: DSF, 100 μM compound, 2 μM protein, 50 μM MnCl2; for ΔTm at 100 µM: read-out: Tm shift (ALKBH3). The procedure: as §1, §2, §10, §11, §12

The target of another series is T5, AlkB (Escherichia coli, UniProt P05050).
T5 construct: made in house; host or cells: E. coli BL21 (DE3) Rosetta T1R
T5 sequence (P05050 12-216): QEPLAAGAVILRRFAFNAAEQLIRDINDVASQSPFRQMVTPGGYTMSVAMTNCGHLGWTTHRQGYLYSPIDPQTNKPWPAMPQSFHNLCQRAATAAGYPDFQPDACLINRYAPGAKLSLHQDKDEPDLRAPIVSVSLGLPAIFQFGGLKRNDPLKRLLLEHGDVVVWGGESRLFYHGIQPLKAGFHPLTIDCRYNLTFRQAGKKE
The series can be described thus: Differential scanning fluorimetry (DSF)-based binding assay, AlkB. The following applies: 100 μM compound, 2 μM protein; for ΔTm at 100 µM: 50 μM MnCl2, read-out: Tm shift (AlkB); for Tm shift (AlkB): 50 μM MnCl2. The procedure:
as §1, §2, §10, §11, §12

[3] abbreviates: HPLC-based demethylase assay, m3T substrate, read-out: IC50 (FTO).

Counter-ions that a name gives are not always drawn. Like-named read-outs stand apart in the source and are kept apart here.

T1 sequence (Q9C0B1 whole entry): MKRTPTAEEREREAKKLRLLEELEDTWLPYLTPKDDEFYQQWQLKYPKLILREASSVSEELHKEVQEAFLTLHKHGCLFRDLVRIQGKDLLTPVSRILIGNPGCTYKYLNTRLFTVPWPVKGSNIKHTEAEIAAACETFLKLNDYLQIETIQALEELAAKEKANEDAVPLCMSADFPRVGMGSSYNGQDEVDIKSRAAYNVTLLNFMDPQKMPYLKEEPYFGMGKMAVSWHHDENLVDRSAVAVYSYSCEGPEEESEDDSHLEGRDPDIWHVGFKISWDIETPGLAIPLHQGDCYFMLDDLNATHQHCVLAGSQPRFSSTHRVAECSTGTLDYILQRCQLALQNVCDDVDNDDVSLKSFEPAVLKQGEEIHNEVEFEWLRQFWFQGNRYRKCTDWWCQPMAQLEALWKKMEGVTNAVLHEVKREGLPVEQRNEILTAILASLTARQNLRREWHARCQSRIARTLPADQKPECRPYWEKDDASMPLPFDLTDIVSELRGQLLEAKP

Turning to `NNC(=O)CCC(=O)O` [Compound 1, succinate hydrazide], on FTO [1] (setting [3]), the IC50 was above 100 µM.
For the compound `NNC(=O)/C=C/C(=O)O` [Compound 2, fumarate hydrazide], the 50% inhibitory concentration (IC50) at FTO [1] (setting [3]) is above 100 µM.
Same read-out and setting: to `NNC(=O)/C=C\C(=O)O` [Compound 3, maleate hydrazide] belongs above 100 µM.
For the compound `O=C(O)/C=C/C(=O)NNC(=O)c1cnc2ccccc2c1` [Compound 8], on FTO [1] (HPLC-based demethylase assay, m3T substrate), the “IC50 (FTO)” value is given as “low micromolar range”.
As to `CN(C)NC(=O)CCC(=O)O` [daminozide, reference compound], the IC50 at FTO [1] is above 100 µM.
Turning to `Cc1cn([C@H]2C[C@H](O)[C@@H](CO)O2)c(=O)n(C)c1=O` [m3T, N ^3-methylthymidine], the ΔTm at 100 µM at ALKBH5 was determined as 1.1 °C; on ALKBH2, 1.1 °C; on FTO [2] it was 12.1 °C; at ALKBH3, 1.3 °C; on AlkB, 1.4 °C.
`CNc1ncnc2c1ncn2[C@@H]1O[C@H](CO)[C@@H](O)[C@H]1O` [m6A, N ^6-methyladenosine]: the ΔTm at 100 µM is 9.8 °C on ALKBH5; 1.3 °C at ALKBH2; 2.4 °C at FTO [2]; 2.1 °C on ALKBH3; 2.6 °C on AlkB.
For the compound “ATTGTGG(A)CUGCAGC: unmethylated counterpart of the 15-mer m6A ssRNA”, the “Tm shift (ALKBH5)” value with ALKBH5 is 3.6 °C. Also, the “Tm shift (ALKBH2)” value with ALKBH2 was 1.2 °C. For the same compound, the “Tm shift (FTO)” value with FTO [2] came to 3.4 °C. Besides, the “Tm shift (ALKBH3)” value with ALKBH3 came to 3.5 °C. The “Tm shift (AlkB)” value with AlkB came out at 2.4 °C.
In the same order, the values of “ATTGTGG(T)CTGCAGC: unmethylated counterpart of the 15-mer m3T ssDNA” are 3.4 °C, 1.3 °C, 3.2 °C, 2.4 °C and 2.7 °C.
For “ATTGTGG(m3T)CTGCAGC: 15-mer m3T-containing ssDNA”, the “Tm shift (ALKBH5)” value in the series with ALKBH5 was 2.6 °C. Moreover, the “Tm shift (ALKBH2)” value in the series with ALKBH2 is 1.5 °C. In addition, the “Tm shift (FTO)” value in the series with FTO [2] stood at 3.0 °C. Besides, the “Tm shift (ALKBH3)” value with ALKBH3 amounted to 2.9 °C. The “Tm shift (AlkB)” value with AlkB is 3.1 °C.
In the same order, the values of “ATTGTGG(m6A)CUGCAGC: 15-mer m6A-containing ssRNA” are 3.5 °C, 1.0 °C, 3.0 °C, 3.0 °C and 2.7 °C.

As usually defined, the IC50 is the concentration that inhibits the measured activity by half.
